Results: patent publication US20220144812A1, “QUINOLINE DERIVATIVES AND THEIR USE FOR THE TREATMENT OF CANCER” (Epizyme, Inc., priority 2019, published 2022)
Where two headings read alike, the source gives them in different places.

Tests used:
[1] = system: H3K18Ac in HB-CLS-2 cells; assay: H3K18AC in-cell western (ICW) assay; format: cell-based; conditions: H3K18Ac in-cell western, read-out: CREBBP ICW IC50
Procedure, shortened: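 In-cell western: after methanol fixation, blocking, overnight 4° C anti-H3K18Ac staining, then 800CW secondary plus DRAQ5 for DNA content, integrated intensities were scanned at 800 and 700 nm. Before this, compound exposure lasted 2 hr at 37° C in HB-CLS-2 cells plated 16–24 hours earlier. Values expressed as IC50 (μM).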

647V cells = assay: High throughput proliferation (HTP) assay; format: cell-based; conditions: high throughput proliferation, read-out: CREBBP HTP IC50
Procedure, shortened: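 Proliferation IC50 (micromolar) derived from a 7-day CellTiter-Glo viable-cell readout in 647V cells exposed, in triplicate, to rising compound concentrations; cells grown in DMEM plus 15% heat-inactivated FBS at 37° C under 5% CO2.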

CREBBP (1084-1701) = molecular target: T1, CREBBP (1084-1701) (Homo sapiens, UniProt Q92793); assay: Biochemical assay for CREBBP (1084-1701), SAMDI; conditions: SAMDI, read-out: CREBBP Biochemistry IC50
T1 construct: measured in the following biochemical assay using CREBBP (1084-1701); purchased
Procedure, shortened: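 Acetyltransferase activity measured by SAMDI mass spectrometry after capture on biochip. Enzyme sat with compound 30 min at RT before acetyl-CoA and biotinylated H3 11-25 (K14R, K23R) peptide were added for 30 min at RT. Formic acid quench, bicarbonate neutralisation; IC50 values reported.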

EP300 (P300(1048-1664)) = molecular target: T2, EP300 (P300(1048-1664)) (Homo sapiens, UniProt Q09472); assay: Biochemical assay for EP300, SAMDI; conditions: EP300, SAMDI; read-out: EP300 Biochemistry IC50
T2 construct: P300(1048-1664)
T2 sequence (Q09472 1048-1664): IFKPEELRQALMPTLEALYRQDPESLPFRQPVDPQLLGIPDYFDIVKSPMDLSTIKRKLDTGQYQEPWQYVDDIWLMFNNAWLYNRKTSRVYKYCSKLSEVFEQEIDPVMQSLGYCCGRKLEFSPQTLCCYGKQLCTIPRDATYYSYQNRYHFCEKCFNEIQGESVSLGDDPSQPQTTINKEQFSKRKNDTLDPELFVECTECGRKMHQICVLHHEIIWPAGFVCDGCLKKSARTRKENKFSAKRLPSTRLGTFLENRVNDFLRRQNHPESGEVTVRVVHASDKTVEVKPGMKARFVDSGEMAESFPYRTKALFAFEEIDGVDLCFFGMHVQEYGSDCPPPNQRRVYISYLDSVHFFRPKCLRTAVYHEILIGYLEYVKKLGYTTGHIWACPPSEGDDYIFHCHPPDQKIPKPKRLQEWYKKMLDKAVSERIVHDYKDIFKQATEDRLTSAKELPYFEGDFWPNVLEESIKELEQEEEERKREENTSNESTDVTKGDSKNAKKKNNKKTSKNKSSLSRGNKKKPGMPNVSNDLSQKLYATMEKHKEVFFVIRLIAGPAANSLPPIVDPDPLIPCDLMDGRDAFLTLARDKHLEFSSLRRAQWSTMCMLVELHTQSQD
Text: The following example describes materials and methods relating to a biochemical assay for EP300. IC50 values (micromolar (μM)) are summarized in Table 1, Table 2, and Table 3 under the column labeled: “EP300 Biochemistry IC50 (micromolar).”

[2] = Homo sapiens, 647-V, 647V cells

T1 sequence (Q92793 1084-1701): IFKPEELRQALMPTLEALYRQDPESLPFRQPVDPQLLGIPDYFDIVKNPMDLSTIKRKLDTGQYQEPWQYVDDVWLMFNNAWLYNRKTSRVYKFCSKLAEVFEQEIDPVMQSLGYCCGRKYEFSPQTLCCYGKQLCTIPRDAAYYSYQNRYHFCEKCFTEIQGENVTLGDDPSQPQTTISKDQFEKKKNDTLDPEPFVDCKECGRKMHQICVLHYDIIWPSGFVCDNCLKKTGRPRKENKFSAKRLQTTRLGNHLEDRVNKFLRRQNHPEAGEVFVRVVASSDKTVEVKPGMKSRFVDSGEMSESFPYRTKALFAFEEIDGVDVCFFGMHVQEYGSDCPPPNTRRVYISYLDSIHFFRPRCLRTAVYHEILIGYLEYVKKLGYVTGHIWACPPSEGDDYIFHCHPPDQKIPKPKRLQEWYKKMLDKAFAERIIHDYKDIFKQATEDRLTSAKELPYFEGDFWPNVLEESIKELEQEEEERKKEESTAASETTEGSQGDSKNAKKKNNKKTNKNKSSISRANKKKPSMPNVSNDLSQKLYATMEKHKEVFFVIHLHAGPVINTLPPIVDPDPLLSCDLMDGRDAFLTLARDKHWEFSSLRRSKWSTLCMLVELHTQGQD

IC50 ([1]; HB-CLS-2 cells) [nM]	IC50 (CREBBP (1084-1701)) [nM]	IC50 (EP300 (P300(1048-1664))) [nM]	IC50 [1] [nM]	SMILES	IC50 (647V cells; [2]) [nM]	IC50 (647V cells; Homo sapiens, 647-V) [nM]	IC50 (647V cells) [nM]
240	32	23	–	CCc1cc(-c2nc(C(=O)N(C)Cc3cnn(CC)c3C)c3cc(Cl)ccc3n2)ccc1NC1CCOCC1 [Compound 415]	240	–	–
4900	22000	16000	–	CCn1ncc(CN(C)C(=O)c2cc(-c3ccc(N(C)CCNC)c(C)n3)nc3ccc(Cl)cc23)c1C [Compound 417]	3100	–	–
78	2.5	2.5	–	CCn1ncc(CN(C)C(=O)c2nc(-c3cc4c(N)n[nH]c4cc3C)nc3ccc(Cl)cc23)c1C [Compound 418]	62	–	–
5800	10000	4400	–	CCn1ncc(CN(C)C(=O)c2nc(-n3nc(N)c4ccc(C)cc43)nc3ccc(Cl)cc23)c1C [Compound 419]	410	–	–
–	39.6	18.6	155	CCn1ncc(CN(C)C(=O)c2cc(-c3ccc(NCCNC)c(C)n3)nc3ccc(COC)cc23)c1C [Compound 432]	–	106	–
–	24900	12500	20000	CCn1ncc(CN(C)C(=O)c2nc(-c3cc4c(N)nn(C)c4cc3C)nc3ccc(Cl)cc23)c1C [Compound 433]	–	2220	–
–	3510	2700	1720	CCn1ncc(CN(C)C(=O)c2nc(-c3cnnc(N)c3)nc3ccc(Cl)cc23)c1C [Compound 434]	–	2250	–
–	7.21	4.2	130	CCn1ncc(CN(C)C(=O)c2nc(-c3cc(C)c4[nH]c(=O)[nH]c4c3)nc3ccc(Cl)cc23)c1C [Compound 436]	–	94.2	–
–	7.82	5.2	74.5	CCn1ncc(CN(C)C(=O)c2cc(-c3cc4n[nH]cc4cn3)nc3ccc(Cl)cc23)c1C [Compound 437]	–	119	–
–	2.5	37.8	84.8	CCn1ncc(CN(C)C(=O)c2nc(-c3cc(N)c4cn[nH]c4c3)nc3ccc(Cl)cc23)c1C [Compound 438]	–	78.5	–
–	170	628	919	CCn1ncc(CN(C)C(=O)c2nc(-c3cc(C)c4nc[nH]c4c3)nc3ccc(COC)cc23)c1C [Compound 439]	–	752	–
–	88.2	937	2050	CCn1ncc(CN(C)C(=O)c2nc(-c3ccc(OCCCNC)c(C(C)C)c3)nc3ccc(Cl)cc23)c1C [Compound 440]	–	991	–
–	50.3	36.7	269	CCn1ncc(CN(C)C(=O)c2nc(-c3ccc(OCCNC)c(Cl)c3)nc3ccc(C(F)F)cc23)c1C [Compound 441]	–	216	–
–	76.9	414	195	CCn1ncc(CN(C)C(=O)c2cc(-c3ccc(OCCNC)c(C)n3)nc3ccc(Cl)cc23)c1C [Compound 442]	–	350	–
–	≥ 50000	≥ 50000	20000	CCn1ncc(CN(C)C(=O)c2nc(-c3cnnc(C(=O)NC)c3)nc3ccc(Cl)cc23)c1C [Compound 443]	–	20000	–
–	12.3	4.1	160	CCn1ncc(CN(C)C(=O)c2nc(-c3cc(C)cc(NC4CNC4)c3)nc3ccc(Cl)cc23)c1C [Compound 444]	–	58.2	–
–	24.8	13.2	112	CCn1ncc(CN(C)C(=O)c2nc(-c3ccc(OCCCNC)c(C)c3C)nc3ccc(Cl)cc23)c1C [Compound 446]	–	34.2	–
–	12.1	2	51.4	CCn1ncc(CN(C)C(=O)c2cc(-c3cc(C(=O)NC)n(C)n3)nc3ccc(Cl)cc23)c1C [Compound 447]	–	68.8	–

SMILES	IC50 ([1]; HB-CLS-2 cells) [nM]	IC50 (CREBBP (1084-1701)) [nM]	IC50 (EP300 (P300(1048-1664))) [nM]	IC50 [1] [nM]	IC50 (647V cells; [2]) [nM]	IC50 (647V cells; Homo sapiens, 647-V) [nM]	IC50 (647V cells) [nM]
CCn1ncc(CN(C)C(=O)c2cc(-c3ccc(OCC(O)CNC)c(C)n3)nc3ccc(Cl)cc23)c1C (stereo not shown) [Compound 435]	–	36.8	15.8	163	–	–	102
